According to patent US8741884B2, “Compounds for the treatment of hepatitis C” (priority 2010, dated 2014):

Tested on: HCV pseudoparticles (genotype 1a HCV E1 and E2 envelope, H77C isolate)
Assay: microbe, parasite or virus in culture
Assay type: cell-based
Conditions: Hepatitis C virus, Huh-7, 48 h, class symbol; HCV pseudoparticles genotype 1a (H77C), Huh7 cells, luciferase 2 days after infection, average of duplicates

Structure (SMILES) | EC50 [µM]
O=C1NCCCCCCNc2nc(nc(OCC(F)(F)F)n2)Nc2cccc1c2 [Example 1001] | 1 to 50
COc1nc2nc(n1)OCc1cccc(c1)Nc1nc(nc(OCC(F)(F)F)n1)NCCN2 [Example 1002] | 1 to 50
C=C1COc2ccc(cc2)CNc2nc(nc(OCC(F)(F)F)n2)Nc2ccc(C(=O)O)c(c2)OC1 [Example 1005] | 1 to 50
C=C1COc2ccc(cc2)CNc2nc(nc(OCC(F)(F)F)n2)Nc2ccc(C(=O)NCC3(CN4CCCC4)CC3)c(c2)OC1 [Example 1006] | 1 to 50
COC(=O)c1ccc2cc1OCCOCCOCCOc1ccc(cc1)CNc1nc(nc(OCC(F)(F)F)n1)N2 [Example 1007] | 1 to 50
CN(C)CC(C)(C)CNC(=O)c1ccc2cc1OCCCCCOc1ccc(cc1)CNc1nc(nc(OCC(F)(F)F)n1)N2 [Example 1009] | 0.0001 to 0.1
CN(C)CC(C)(C)CNC(=O)c1ccc2cc1OCCCCCCCCOc1ccc(cc1)CNc1nc(nc(OCC(F)(F)F)n1)N2 [Example 1010] | 0.0001 to 0.1
CN(C)CC(C)(C)CNC(=O)c1ccc2cc1OCCOCCOCCOc1ccc(cc1)CNc1nc(nc(OCC(F)(F)F)n1)N2 [Example 1011] | 0.0001 to 0.1
CC(C)(C)OC(=O)N1CCCC(NC(=O)c2ccc3cc2OCCCCCCCCOc2ccc(cc2)CNc2nc(nc(OCC(F)(F)F)n2)N3)C1 (stereo not drawn) [Example 1012] | 0.0001 to 0.1
O=C(NC1CCCNC1)c1ccc2cc1OCCCCCCCCOc1ccc(cc1)CNc1nc(nc(OCC(F)(F)F)n1)N2 (stereo not drawn) [Example 1013] | 0.0001 to 0.1
O=C1NCCNc2nc(nc(OCC(F)(F)F)n2)Nc2cccc(c2)CNC(=O)OCCO1 [Example 1014] | 1 to 50
O=C1COCC(=O)NCc2cccc(c2)Nc2nc(nc(OCC(F)(F)F)n2)NCCN1 [Example 1015] | 1 to 50
COC(=O)CCNC(=O)c1ccc2cc1OCCCCCCCCOc1ccc(cc1)CNc1nc(nc(OCC(F)(F)F)n1)N2 [Example 1017] | 0.1 to 1
CC(C)(C)OC(=O)NC1(C(=O)O)CCN(C(=O)c2ccc3cc2OCCCCCCCCOc2ccc(cc2)CNc2nc(nc(OCC(F)(F)F)n2)N3)C1 (stereo not drawn) [Example 1018] | 1 to 50
CN(C)CC(C)(C)CNC(=O)c1ccc2cc1OCCCC(O)C(O)CCCOc1ccc(cc1)CNc1nc(nc(OCC(F)(F)F)n1)N2 (stereo not drawn) [Example 1022] | 0.0001 to 0.1
COC(=O)CCCNC(=O)c1ccc2cc1OCCCCCCCCOc1ccc(cc1)CNc1nc(nc(OCC(F)(F)F)n1)N2 [Example 1101] | 0.0001 to 0.1
O=C(NCC1(CN2CCCC2)CC1)c1ccc2cc1OCCCCCCCCOc1ccc(cc1)CNc1nc(nc(OCC(F)(F)F)n1)N2 [Example 1102] | 0.0001 to 0.1
COC(=O)CC1CCN(C(=O)c2ccc3cc2OCCCCCCCCOc2ccc(cc2)CNc2nc(nc(OCC(F)(F)F)n2)N3)C1 (stereo not drawn) [Example 1103] | 1 to 50
COC(=O)CNC(=O)c1ccc2cc1OCCCCCCCCOc1ccc(cc1)CNc1nc(nc(OCC(F)(F)F)n1)N2 [Example 1104] | 0.1 to 1

Structure (SMILES) | EC50 [µM]
CC(C)(C)OC(=O)N1CCC(CNC(=O)c2ccc3cc2OCCCCCCCCOc2ccc(cc2)CNc2nc(nc(OCC(F)(F)F)n2)N3)C1 (stereo not drawn) [Example 1105] | 0.0001 to 0.1
COC(=O)C(NC(=O)c1ccc2cc1OCCCCCCCCOc1ccc(cc1)CNc1nc(nc(OCC(F)(F)F)n1)N2)C1CCCN(C(=O)OC(C)(C)C)C1 (stereo not drawn) [Example 1106] | 0.0001 to 0.1
N=C(N)CNC(=O)c1ccc2cc1OCCCCCCCCOc1ccc(cc1)CNc1nc(nc(OCC(F)(F)F)n1)N2 [Example 1107] | 0.0001 to 0.1
CC(C)(C)OC(=O)N1CCC2(CCN(C(=O)c3ccc4cc3OCCCCCCCCOc3ccc(cc3)CNc3nc(nc(OCC(F)(F)F)n3)N4)C2)C1 (stereo not drawn) [Example 1109] | 0.1 to 1
O=C(O)CNC(=O)c1ccc2cc1OCCCCCCCCOc1ccc(cc1)CNc1nc(nc(OCC(F)(F)F)n1)N2 [Example 1131] | 0.1 to 1
O=C(O)CC1CCN(C(=O)c2ccc3cc2OCCCCCCCCOc2ccc(cc2)CNc2nc(nc(OCC(F)(F)F)n2)N3)C1 (stereo not drawn) [Example 1132] | 1 to 50
O=C(CNC(=O)c1ccc2cc1OCCCCCCCCOc1ccc(cc1)CNc1nc(nc(OCC(F)(F)F)n1)N2)NS(=O)(=O)C1CC1 [Example 1133] | 0.1 to 1
O=C(NCC1CCNC1)c1ccc2cc1OCCCCCCCCOc1ccc(cc1)CNc1nc(nc(OCC(F)(F)F)n1)N2 (stereo not drawn) [Example 1151] | 0.0001 to 0.1
COC(=O)C(NC(=O)c1ccc2cc1OCCCCCCCCOc1ccc(cc1)CNc1nc(nc(OCC(F)(F)F)n1)N2)C1CCCNC1 (stereo not drawn) [Example 1152] | 0.0001 to 0.1
O=C(c1ccc2cc1OCCCCCCCCOc1ccc(cc1)CNc1nc(nc(OCC(F)(F)F)n1)N2)N1CCC2(CCNC2)C1 (stereo not drawn) [Example 1153] | 0.1 to 1
CN(C)CC(C)(C)CNC(=O)c1ccc2cc1OCCCCCCCOc1ccc(cc1)CNc1nc(nc(OCC(F)(F)F)n1)N2 [Example 1201] | 0.0001 to 0.1
CN(C)CC(C)(C)CNC(=O)c1ccc2cc1OCCCCCCOc1ccc(cc1)CNc1nc(nc(OCC(F)(F)F)n1)N2 [Example 1202] | 0.0001 to 0.1
COC(=O)c1ccc2cc1OCCCCCCOc1ccc(cc1)CNc1nc(nc(OCC(F)(F)F)n1)N2 [Example 1301] | 0.1 to 1
O=C(O)c1ccc2cc1OCCCCCCOc1ccc(cc1)CNc1nc(nc(OCC(F)(F)F)n1)N2 [Example 1302] | 1 to 50
COC(=O)CCNC(=O)c1ccc2cc1OCCCCCCOc1ccc(cc1)CNc1nc(nc(OCC(F)(F)F)n1)N2 [Example 1303] | 0.1 to 1
COC(=O)C(NC(=O)c1ccc2cc1OCCCCCCOc1ccc(cc1)CNc1nc(nc(OCC(F)(F)F)n1)N2)C1CCCN(C(=O)OC(C)(C)C)C1 (stereo not drawn) [Example 1304] | 0.0001 to 0.1
CC(C)(C)OC(=O)N1CCC(CNC(=O)c2ccc3cc2OCCCCCCOc2ccc(cc2)CNc2nc(nc(OCC(F)(F)F)n2)N3)C1 (stereo not drawn) [Example 1305] | 0.0001 to 0.1
CC(C)(C)OC(=O)N1CCCC1CNC(=O)c1ccc2cc1OCCCCCCOc1ccc(cc1)CNc1nc(nc(OCC(F)(F)F)n1)N2 (stereo not drawn) [Example 1306] | 0.0001 to 0.1
COC(=O)[C@H](CCNC(=O)OC(C)(C)C)NC(=O)c1ccc2cc1OCCCCCCOc1ccc(cc1)CNc1nc(nc(OCC(F)(F)F)n1)N2 [Example 1307] | 0.0001 to 0.1

Structure (SMILES) | EC50 [µM]
CCOC(=O)[C@@H]1CN(C(=O)OC(C)(C)C)C[C@H]1NC(=O)c1ccc2cc1OCCCCCCOc1ccc(cc1)CNc1nc(nc(OCC(F)(F)F)n1)N2 [Example 1308] | 0.0001 to 0.1
COC(=O)[C@@H](CNC(=O)OC(C)(C)C)NC(=O)c1ccc2cc1OCCCCCCOc1ccc(cc1)CNc1nc(nc(OCC(F)(F)F)n1)N2 [Example 1309] | 0.1 to 1
COC(=O)C(NC(=O)c1ccc2cc1OCCCCCCOc1ccc(cc1)CNc1nc(nc(OCC(F)(F)F)n1)N2)C1CCN(C(=O)OC(C)(C)C)C1 (stereo not drawn) [Example 1310] | 0.0001 to 0.1
N=C(N)NCCC[C@H](NC(=O)c1ccc2cc1OCCCCCCOc1ccc(cc1)CNc1nc(nc(OCC(F)(F)F)n1)N2)C(N)=O [Example 1313] | 0.0001 to 0.1
N=C(N)NCCCCNC(=O)c1ccc2cc1OCCCCCCOc1ccc(cc1)CNc1nc(nc(OCC(F)(F)F)n1)N2 [Example 1314] | 0.0001 to 0.1
CCOC(=O)[C@H](CCCNC(=N)N)NC(=O)c1ccc2cc1OCCCCCCOc1ccc(cc1)CNc1nc(nc(OCC(F)(F)F)n1)N2 [Example 1317] | 0.0001 to 0.1
NC(=O)C(Cc1ccccc1)NC(=O)c1ccc2cc1OCCCCCCOc1ccc(cc1)CNc1nc(nc(OCC(F)(F)F)n1)N2 (stereo not drawn) [Example 1319] | 0.0001 to 0.1
CCOC(=O)[C@H]1CN(C(=O)OC(C)(C)C)C[C@H]1NC(=O)c1ccc2cc1OCCCCCCOc1ccc(cc1)CNc1nc(nc(OCC(F)(F)F)n1)N2 [Example 1320] | 0.0001 to 0.1
COC(=O)[C@H](CNC(=O)OC(C)(C)C)NC(=O)c1ccc2cc1OCCCCCCOc1ccc(cc1)CNc1nc(nc(OCC(F)(F)F)n1)N2 [Example 1321] | 0.0001 to 0.1
COC(=O)[C@H](CNC(=O)c1ccccc1)NC(=O)c1ccc2cc1OCCCCCCOc1ccc(cc1)CNc1nc(nc(OCC(F)(F)F)n1)N2 [Example 1323] | 0.0001 to 0.1
O=C(NC1CCNC1=O)c1ccc2cc1OCCCCCCOc1ccc(cc1)CNc1nc(nc(OCC(F)(F)F)n1)N2 (stereo not drawn) [Example 1324] | 0.0001 to 0.1
CC(C)(C)OC(=O)N[C@@H](CCNC(=O)c1ccc2cc1OCCCCCCOc1ccc(cc1)CNc1nc(nc(OCC(F)(F)F)n1)N2)C(=O)OC(C)(C)C [Example 1325] | 0.0001 to 0.1
N=C(N)NCCC[C@H](NC(=O)c1ccc2cc1OCCCCCCOc1ccc(cc1)CNc1nc(nc(OCC(F)(F)F)n1)N2)C(=O)O [Example 1402] | 0.0001 to 0.1
N=C(N)NC[C@H](NC(=O)c1ccc2cc1OCCCCCCOc1ccc(cc1)CNc1nc(nc(OCC(F)(F)F)n1)N2)C(=O)O [Example 1403] | 0.0001 to 0.1
CC[C@@H](C)[C@H](NC(=O)c1ccc2cc1OCCCCCCOc1ccc(cc1)CNc1nc(nc(OCC(F)(F)F)n1)N2)C(=O)O [Example 1404] | 0.0001 to 0.1
O=C(NC(Cc1ccccc1)C(=O)O)c1ccc2cc1OCCCCCCOc1ccc(cc1)CNc1nc(nc(OCC(F)(F)F)n1)N2 (stereo not drawn) [Example 1405] | 0.0001 to 0.1
CC(C)(C)OC(=O)N1CCC(C(NC(=O)c2ccc3cc2OCCCCCCOc2ccc(cc2)CNc2nc(nc(OCC(F)(F)F)n2)N3)C(=O)O)CC1 (stereo not drawn) [Example 1406] | 0.0001 to 0.1
CC(C)(C)OC(=O)N1CCCC1CC(NC(=O)c1ccc2cc1OCCCCCCOc1ccc(cc1)CNc1nc(nc(OCC(F)(F)F)n1)N2)C(=O)O (stereo not drawn) [Example 1407] | 0.0001 to 0.1

Same assay, conditions: Hepatitis C virus, Huh-7, 48 h, numeric value; HCV pseudoparticles genotype 1a (H77C), Huh7 cells, luciferase 2 days after infection, average of duplicates

Structure (SMILES) | EC50 [µM]
COC(=O)c1ccc2cc1OCCOCCOCCOc1ccc(cc1)CNc1nc(nc(OCC(F)(F)F)n1)N2 [Example 1007] | 9.84
CN(C)CC(C)(C)CNC(=O)c1ccc2cc1OCCCCCCCCOc1ccc(cc1)CNc1nc(nc(OCC(F)(F)F)n1)N2 [Example 1010] | 0.00514
O=C1COCC(=O)NCc2cccc(c2)Nc2nc(nc(OCC(F)(F)F)n2)NCCN1 [Example 1015] | 3.06
CC(C)(C)OC(=O)NC1(C(=O)O)CCN(C(=O)c2ccc3cc2OCCCCCCCCOc2ccc(cc2)CNc2nc(nc(OCC(F)(F)F)n2)N3)C1 (stereo not drawn) [Example 1018] | 5.65
CC(C)(C)OC(=O)N1CCC(CNC(=O)c2ccc3cc2OCCCCCCCCOc2ccc(cc2)CNc2nc(nc(OCC(F)(F)F)n2)N3)C1 (stereo not drawn) [Example 1105] | 0.0491

Same assay, conditions: read-out: EC50

Structure (SMILES) | EC50 [µM]
COC(=O)c1ccc2cc1OCCCCOC[C@H](c1ccccc1)Nc1nc(nc(OCC(F)(F)F)n1)N2 [Example 1003] | 1 to 50
O=C(O)c1ccc2cc1OCCCCOC[C@H](c1ccccc1)Nc1nc(nc(OCC(F)(F)F)n1)N2 [Example 1004] | 1 to 50
C=C1CNCCNc2nc(nc(OCC(F)(F)F)n2)Nc2cccc(c2)CNC1 [Example 1016] | 1 to 50
COC(=O)c1ccc2cc1OCCCC=CCCCOc1ccc(cc1)CNc1nc(nc(OCC(F)(F)F)n1)N2 [Example 1019] | 0.1 to 1
O=C(O)c1ccc2cc1OCCCC=CCCCOc1ccc(cc1)CNc1nc(nc(OCC(F)(F)F)n1)N2 [Example 1020] | 1 to 50
